Where a SMILES comes first, the peptide text is derived from it. [ ]: non-standard residue; d: D form. The star is where a group is joined. NHCH2CH2OH = OCCN*; For = O=C*
Experiments:
[1] = cell viability/%
Outline: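 Peptide stocks diluted 250× in growth medium; P388 cells 1 × 10^4 cells/mL final; 37 °C, 5% CO2, 92 h. WST-1 + 1-methoxy PMS, 4 h, A415. Output: % viability.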

[2] = H+/Na+ transport assay of bead-derived peptides (one-point); assay type: biochemical; design: key: relative activity; mean of two control wells = 1.00; conditions: bead-derived peptide solution, EYPC/EYPG LUVs;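 note: relative to parent gramicidin A activity set to 1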
Outline: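 One-point screen: peptide + pyranine-loaded LUVs, 30 min RT with vortexing, 96-well. Read-out is fluorescence intensity scaled as 100 × (Ix – I0)/(Imax – I0). Imax from Triton X-100, I0 from untreated vesicles, and the mean of the two control wells is set to 1.00.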

[3] = tested on: Streptococcus pyogenes SSI-9; test: Antibacterial activity assay of bead-derived peptides (three concentrations); assay type: cell-based; design: key: +++: inhibition by the 640-fold diluted peptide solution; ++: inhibition by the 160-fold diluted solution; +: inhibition by the 40-fold diluted solution; -: no inhibition; conditions: S. pyogenes, bead-derived peptide solution, three concentrations
Outline: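 Growth inhibition scored visually as precipitated bacteria after 37 °C, 18 h incubation. Streptococcus pyogenes SSI-9 inoculum of 2 × 10^5 CFU in Ca2+/Mg2+-adjusted Mueller Hinton broth plus 5% laked horse blood; peptides tested at three levels: stock, 4-fold and 16-fold DMSO dilutions.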

Row | Structure (SMILES) | viability [1] [%] | H+/Na+ transport activity normalized against the value of 1 (1.00) [2] | antibacterial activity [3]
1 | CNC(=O)C[C@@H](NC(=O)[C@H](Cc1c[nH]c2ccccc12)NC(=O)[C@H](NC(=O)[C@H](Cc1c[nH]c2ccccc12)NC(=O)[C@H](NC(=O)[C@H](Cc1c[nH]c2ccccc12)NC(=O)[C@H](NC(=O)[C@@H](NC(=O)[C@@H](CC(C)C)NC(=O)[C@H](C)NC(=O)[C@H](NC(=O)[C@H](C)NC(=O)CNC(=O)[C@@H](NC=O)C(C)C)C(C)C)C(C)C)C(C)C)C(C)C)C(C)C)C(=O)N[C@@H](Cc1c[nH]c2ccccc12)C(=O)NCCO [compound 2911] (For-VGA[dV]A[dL]V[dV]W[dV]W[dV]W[dD](NHMe)W-NHCH2CH2OH) | 100 | 1.16 | -
2 | CC(C)C[C@@H](NC(=O)[C@H](C)NC(=O)CNC(=O)[C@@H](NC=O)C(C)C)C(=O)N[C@@H](C)C(=O)N[C@@H](C(=O)N[C@H](C(=O)N[C@@H](C(=O)N[C@@H](Cc1c[nH]c2ccccc12)C(=O)N[C@H](CC(C)C)C(=O)N[C@@H](Cc1c[nH]c2ccccc12)C(=O)N[C@@H](C(=O)N[C@@H](Cc1c[nH]c2ccccc12)C(=O)N[C@H](CC(C)C)C(=O)N[C@@H](Cc1c[nH]c2ccccc12)C(=O)NCCO)C(C)C)C(C)C)C(C)C)C(C)C [compound 3861] (For-VGA[dL]A[dV]V[dV]W[dL]W[dV]W[dL]W-NHCH2CH2OH) | 0.1 | 1.51 | ++
3 | CC(C)C[C@@H](NC(=O)[C@H](C)NC(=O)CNC(=O)[C@@H](NC=O)C(C)C)C(=O)N[C@@H](C)C(=O)N[C@H](CC(C)C)C(=O)N[C@H](C(=O)N[C@@H](C(=O)N[C@@H](Cc1c[nH]c2ccccc12)C(=O)N[C@@H](C(=O)N[C@@H](Cc1c[nH]c2ccccc12)C(=O)N[C@@H](C(=O)N[C@@H](Cc1c[nH]c2ccccc12)C(=O)N[C@H](CC(C)C)C(=O)N[C@@H](Cc1c[nH]c2ccccc12)C(=O)NCCO)C(C)C)C(C)C)C(C)C)C(C)C [compound 905] (For-VGA[dL]A[dL]V[dV]W[dV]W[dV]W[dL]W-NHCH2CH2OH) | 90.6 | 1.19 | +
4 | CC(C)C[C@@H](NC(=O)[C@H](C)NC(=O)CNC(=O)[C@@H](NC=O)C(C)C)C(=O)N[C@@H](C)C(=O)N[C@@H](C(=O)N[C@H](C(=O)N[C@H](CC(C)C)C(=O)N[C@@H](Cc1c[nH]c2ccccc12)C(=O)N[C@H](CC(C)C)C(=O)N[C@@H](Cc1c[nH]c2ccccc12)C(=O)N[C@@H](C(=O)N[C@@H](Cc1c[nH]c2ccccc12)C(=O)N[C@@H](C(=O)N[C@@H](Cc1c[nH]c2ccccc12)C(=O)NCCO)[C@H](C)O)[C@H](C)O)C(C)C)C(C)C [compound 4328] (For-VGA[dL]A[dV]V[dL]W[dL]W[dT]W[dT]W-NHCH2CH2OH) | 100 | 1.13 | +
5 | CC(C)C[C@@H](NC(=O)[C@H](C)NC(=O)CNC(=O)[C@@H](NC=O)C(C)C)C(=O)N[C@@H](C)C(=O)N[C@@H](C(=O)N[C@H](C(=O)N[C@H](CC(C)C)C(=O)N[C@@H](Cc1c[nH]c2ccccc12)C(=O)N[C@H](CC(C)C)C(=O)N[C@@H](Cc1c[nH]c2ccccc12)C(=O)N[C@H](CC(C)C)C(=O)N[C@@H](Cc1c[nH]c2ccccc12)C(=O)N[C@@H](C(=O)N[C@@H](Cc1c[nH]c2ccccc12)C(=O)NCCO)C(C)C)C(C)C)[C@H](C)O [compound 8288] (For-VGA[dL]A[dT]V[dL]W[dL]W[dL]W[dV]W-NHCH2CH2OH) | 47.4 | 1.02 | -
6 | CC(C)C[C@@H](NC(=O)[C@H](Cc1c[nH]c2ccccc12)NC(=O)[C@@H](CC(C)C)NC(=O)[C@H](Cc1c[nH]c2ccccc12)NC(=O)[C@@H](CC(C)C)NC(=O)[C@H](Cc1c[nH]c2ccccc12)NC(=O)[C@H](NC(=O)[C@@H](NC(=O)[C@H](NC(=O)[C@H](C)NC(=O)[C@H](NC(=O)[C@H](C)NC(=O)CNC(=O)[C@@H](NC=O)C(C)C)C(C)C)[C@H](C)O)C(C)C)C(C)C)C(=O)N[C@@H](Cc1c[nH]c2ccccc12)C(=O)NCCO [compound 13151] (For-VGA[dV]A[dT]V[dV]W[dL]W[dL]W[dL]W-NHCH2CH2OH) | 100 | 1.01 | -
7 | CC(C)C[C@@H](NC(=O)[C@@H](NC(=O)[C@H](NC(=O)[C@H](C)NC(=O)[C@H](NC(=O)[C@H](C)NC(=O)CNC(=O)[C@@H](NC=O)C(C)C)[C@H](C)O)C(C)C)C(C)C)C(=O)N[C@@H](Cc1c[nH]c2ccccc12)C(=O)N[C@@H](C(=O)N[C@@H](Cc1c[nH]c2ccccc12)C(=O)N[C@@H](C(=O)N[C@@H](Cc1c[nH]c2ccccc12)C(=O)N[C@@H](C(=O)N[C@@H](Cc1c[nH]c2ccccc12)C(=O)NCCO)C(C)C)C(C)C)C(C)C [compound 3019] (For-VGA[dT]A[dV]V[dL]W[dV]W[dV]W[dV]W-NHCH2CH2OH) | 100 | 1.12 | -
8 | CC(C)C[C@@H](NC(=O)[C@H](C)NC(=O)CNC(=O)[C@@H](NC=O)C(C)C)C(=O)N[C@@H](C)C(=O)N[C@@H](C(=O)N[C@H](C(=O)N[C@@H](C(=O)N[C@@H](Cc1c[nH]c2ccccc12)C(=O)N[C@@H](C(=O)N[C@@H](Cc1c[nH]c2ccccc12)C(=O)N[C@@H](C(=O)N[C@@H](Cc1c[nH]c2ccccc12)C(=O)N[C@H](CC(C)C)C(=O)N[C@@H](Cc1c[nH]c2ccccc12)C(=O)NCCO)C(C)C)C(C)C)C(C)C)C(C)C)[C@H](C)O [compound 2475] (For-VGA[dL]A[dT]V[dV]W[dV]W[dV]W[dL]W-NHCH2CH2OH) | 100 | 1.13 | -
9 | CC(C)C[C@@H](NC(=O)[C@H](C)NC(=O)[C@H](NC(=O)[C@H](C)NC(=O)CNC(=O)[C@@H](NC=O)C(C)C)[C@H](C)O)C(=O)N[C@H](C(=O)N[C@H](CC(C)C)C(=O)N[C@@H](Cc1c[nH]c2ccccc12)C(=O)N[C@@H](C(=O)N[C@@H](Cc1c[nH]c2ccccc12)C(=O)N[C@H](CC(C)C)C(=O)N[C@@H](Cc1c[nH]c2ccccc12)C(=O)N[C@@H](C(=O)N[C@@H](Cc1c[nH]c2ccccc12)C(=O)NCCO)C(C)C)C(C)C)C(C)C [compound 102] (For-VGA[dT]A[dL]V[dL]W[dV]W[dL]W[dV]W-NHCH2CH2OH) | 100 | 1.09 | -
10 | CC(C)C[C@@H](NC(=O)[C@H](Cc1c[nH]c2ccccc12)NC(=O)[C@@H](CC(C)C)NC(=O)[C@H](Cc1c[nH]c2ccccc12)NC(=O)[C@H](NC(=O)[C@H](Cc1c[nH]c2ccccc12)NC(=O)[C@@H](CC(C)C)NC(=O)[C@@H](NC(=O)[C@H](NC(=O)[C@H](C)NC(=O)[C@H](NC(=O)[C@H](C)NC(=O)CNC(=O)[C@@H](NC=O)C(C)C)[C@H](C)O)C(C)C)C(C)C)C(C)C)C(=O)N[C@@H](Cc1c[nH]c2ccccc12)C(=O)NCCO [compound 8827] (For-VGA[dT]A[dV]V[dL]W[dV]W[dL]W[dL]W-NHCH2CH2OH) | 80.7 | 1.22 | -
11 | CNC(=O)C[C@@H](NC(=O)[C@H](C)NC(=O)[C@H](NC(=O)[C@H](C)NC(=O)CNC(=O)[C@@H](NC=O)C(C)C)C(C)C)C(=O)N[C@H](C(=O)N[C@H](CC(C)C)C(=O)N[C@@H](Cc1c[nH]c2ccccc12)C(=O)N[C@H](CC(C)C)C(=O)N[C@@H](Cc1c[nH]c2ccccc12)C(=O)N[C@@H](C(=O)N[C@@H](Cc1c[nH]c2ccccc12)C(=O)N[C@H](CC(C)C)C(=O)N[C@@H](Cc1c[nH]c2ccccc12)C(=O)NCCO)C(C)C)C(C)C [compound 1489] (For-VGA[dV]A[dD](NHMe)V[dL]W[dL]W[dV]W[dL]W-NHCH2CH2OH) | 100 | 1.03 | -
12 | CNC(=O)C[C@@H](NC(=O)[C@H](Cc1c[nH]c2ccccc12)NC(=O)[C@H](NC(=O)[C@H](Cc1c[nH]c2ccccc12)NC(=O)[C@@H](CC(C)C)NC(=O)[C@H](Cc1c[nH]c2ccccc12)NC(=O)[C@@H](CC(C)C)NC(=O)[C@@H](NC(=O)[C@H](NC(=O)[C@H](C)NC(=O)[C@H](NC(=O)[C@H](C)NC(=O)CNC(=O)[C@@H](NC=O)C(C)C)C(C)C)C(C)C)C(C)C)C(C)C)C(=O)N[C@@H](Cc1c[nH]c2ccccc12)C(=O)NCCO [compound 3903] (For-VGA[dV]A[dV]V[dL]W[dL]W[dV]W[dD](NHMe)W-NHCH2CH2OH) | 100 | 1.10 | -
13 | CC(C)C[C@@H](NC(=O)[C@H](C)NC(=O)[C@H](NC(=O)[C@H](C)NC(=O)CNC(=O)[C@@H](NC=O)C(C)C)[C@H](C)O)C(=O)N[C@H](C(=O)N[C@H](CC(C)C)C(=O)N[C@@H](Cc1c[nH]c2ccccc12)C(=O)N[C@@H](C(=O)N[C@@H](Cc1c[nH]c2ccccc12)C(=O)N[C@H](CC(C)C)C(=O)N[C@@H](Cc1c[nH]c2ccccc12)C(=O)N[C@@H](C(=O)N[C@@H](Cc1c[nH]c2ccccc12)C(=O)NCCO)[C@H](C)O)C(C)C)C(C)C [compound 3130] (For-VGA[dT]A[dL]V[dL]W[dV]W[dL]W[dT]W-NHCH2CH2OH) | 100 | 1.05 | -
